Test results as given in US20100003217A1, “Compounds and Pharmaceutical Compositions for the Treatment of Viral Infections” (priority 2008, published 2010).
Several values for one entry are separate records, joined by “and”; a condition that tells them apart may be missing. Equal values may be shown once.

Experiments:
[1] = Stability in human liver microsomes; format: in vitro ADME; conditions: 10 μM; for % Residual Compound 1: human liver microsomes 1 mg/mL
Experimental: Disappearance of parent Compound 1 was used to evaluate the in vitro metabolism thereof. Relative levels of unchanged Compound 1 were measured by HPLC-UV method 1. Residual Compound 1 is reported as percent difference from time zero or control. The HPLC-UV system was as follows:
Incubations with liver microsomes or cytosol were conducted in a final volume of 0.1 mL per incubation time point. […] The microsomal reaction was initiated by the addition of NADPH (3 mM final concentration). Incubations with (a) no protein or (b) no NADPH served as controls. Reactions were terminated by the addition of 0.2 mL of stop solution (acetonitrile). The samples were vortex-mixed for 30 sec and then centrifuged at 10,000×g for 10 min. The supernatant was dried using a Labconco CentriVap concentrator and the dry residue reconstituted in water, transferred to an HPLC glass vial and analyzed by HPLC-UV method 1 (described above).
Metabolic stability of the proposed metabolites was conducted by incubating the chemically synthesized standards Compound 2, Compound 4 and Compound 3 as described above for Compound 1. When possible, formation of Compound 5 was verified by incubating samples with alkaline phosphatase (10 U) for 60 min at 37° C.

[2] = Metabolite profiling in human liver microsomes; format: in vitro ADME; parameters: key: +: peak detected; ?: peak observed; ND: not detected; conditions: 50 μM Compound 1, 2 hours
Experimental: Preliminary identification of putative metabolites was conducted by comparing the retention time of observed metabolites with retention times obtained with chemically synthesized standards using the following HPLC-UV method:
Incubations with liver microsomes, liver cytosol or pig liver esterase were conducted in a final volume of 0.1 mL per incubation time point. Pooled microsomal protein (1.0 mg/mL) suspended in incubation buffer (0.1 M potassium phosphate, pH 7.4) was incubated for 2 hours at 37° C. with 50 μM Compound 1 from a stock solution in DMSO (final DMSO concentration was 0.1%); the microsomal reaction was initiated by the addition of an NADPH regenerating system (1.3 mM NADP^+, 3.3 mM glucose-6-phosphate, 0.4 U/ml glucose-6-phosphate dehydrogenase, and 3.3 mM MgCl2, final concentrations). Incubations with no NADPH or no protein served as controls. Reactions were terminated by the addition of 0.1 mL of stop solution (acetonitrile). The samples were vortex-mixed for 30 sec and then centrifuged at 10,000×g for 10 min. The supernatant was dried using a Labconco CentriVap concentrator and the dry residue reconstituted in water, transferred to an HPLC glass vial and analyzed by HPLC-UV method 2 (described above).
Results: Preliminary identification was accomplished by comparing LC elution of metabolites with that of available synthetic standards of putative metabolites (FIG. 2). Metabolites U1, U2 and U3 were characterized based on the retention times.

[3] = Excretion of administered dose in rat urine and feces; format: in vivo, male Sprague-Dawley rats
Experimental: Isotopically diluted [^14C]-Compound 1 was administered intravenously to male Sprague-Dawley rats at 50 mg/kg or by oral gavage at 100 mg/kg.
(§1) Percent of the administered dose (% AD) for parent drug and each metabolite at each collection period=(% of the total radioactivity in the sample attributed to the metabolite)*(total radioactivity expressed as % of the administered dose, recovered during the corresponding collection period).
The urine and feces of each animal were analyzed for radiolabel content.

[4] = Metabolite profile in rat urine; format: in vivo, male Sprague-Dawley rats; conditions: for Percent of Dose, Urine 0-24 h: after [14C]Compound 1; for % AD, estimated: from single animal HPLC distribution and mean % AD
Experimental: Pooled urine samples were prepared for Groups 1C and 2C by mixing a fixed percent of the total volume for all four animals from the selected time points. For Group 1C, samples of the 1-, 2-, 6-, and 24-h collection intervals were pooled. For Group 2C, a pool of samples from all four animals was prepared for the 24 h collection intervals only. For 1-, 2-, and 6 h collection intervals, a urine sample of a single animal of Group 2A or 2B was used for analysis. All samples were brought to room temperature and vortexed briefly. The samples were diluted as necessary (2- to 20-fold) with appropriate aqueous mobile phase for the selected HPLC method. The pooled and diluted samples from the 24 h collection interval were centrifuged at 2040×g for 10 minutes. All other samples were analyzed without centrifugation. HPLC method 1 was used for HPLC profiling. Selected samples were analyzed by HPLC method 2 for comparison with the metabolite profile generated by microsomal and hepatocyte incubations (Examples 14 and 15) and with the metabolite profile of liver extracts.
as §1
HPLC analyses of pooled urine samples of all time points were conducted for Group 1C. Metabolites R1, R2, R3, R4, R5, R6, R7 and R8 were characterized based on retention time.
For the PO dose group, a pooled urine sample from the 24-h collection time was analyzed. For 1-, 2-, and 6-h collection times, the majority of the samples had been used for radioanalysis. The remaining samples were insufficient for proportional pooling. Therefore, single animal samples of […] groups were used for HPLC profiling. Metabolites R^1, R^2, R^3, R^4, R^5, R^6, R^7 and R^8 were characterized based on retention time.
Table 50 contains data from single animal samples and pooled samples. To estimate overall distribution of urinary metabolites, it was assumed that the profile from a single animal is reflective of the overall average metabolite profile. Therefore, HPLC distribution data from single animals was used to calculate the percentage of administered dose excreted as various metabolites during the 1-, 2-, and 6-h collection intervals. Metabolites R1, R2, R3, R4, R5, R6, R7 and R8 were characterized based on retention time.

[5] = Excretion of administered dose in rat urine and feces; format: in vivo, male Sprague-Dawley rats; conditions: IV; 24 h after [14C]Compound 1
[6] = rat, Group 1A: IV 50 mg/kg, termination 2 h
[7] = rat, Group 1B: IV 50 mg/kg, termination 6 h
[8] = rat, Group 1C: IV 50 mg/kg, termination 24 h
[9] = rat, Group 2A: PO 100 mg/kg, termination 2 h
[10] = rat, Group 2B: PO 100 mg/kg, termination 6 h
[11] = rat, Group 2C: PO 100 mg/kg, termination 24 h
[12] = PO dose urine, 1 h collection, single animal (#15, Group 2A)
[13] = PO dose urine, 2 h collection, single animal (#20, Group 2B)
[14] = estimated profile table, group 2C (PO dose) urine, 24 h
[15] = group 1C (IV dose) pooled urine, 1 h collection
[16] = group 1C (IV dose) pooled urine, 2 h collection
[17] = group 1C (IV dose) pooled urine, 6 h collection
[18] = group 1C (IV dose) pooled urine, 24 h collection
[19] = group 2C (PO dose) pooled urine, 24 h collection

CC(C)(CO)C(=O)SCCOP(=O)(NCc1ccccc1)OC[C@H]1O[C@@H](n2cnc3c(=O)[nH]c(N)nc32)[C@](C)(O)[C@@H]1O (mixture of isomers) [Compound 1, 3-hydroxy-2,2-dimethyl-thiopropionic acid S-(2-{[(2R,3R,4R,5R)-5-(2-amino-6-oxo-1,6-dihydro-purin-9-yl)-3,4-dihydroxy-4-methyl-tetrahydro-furan-2-ylmethoxy]-benzylamino-phosphoryloxy}-ethyl) ester]
% Residual Compound 1 ([1]; 0 min, NADPH): 100% | % Residual Compound 1 ([1]; 0 min, No Cofactor): 100% | % Residual Compound 1 ([1]; 30 min, NADPH): 52% | % Residual Compound 1 ([1]; 30 min, No Cofactor): 100% | % Residual Compound 1 ([1]; 60 min, NADPH): 34% | % Residual Compound 1 ([1]; 60 min, No Cofactor): 94% | NADPH-dependent metabolism ([1]; human liver microsomes, NADPH, 60 min): 66% | In vitro metabolite profile in microsomes following incubation with Compound 1 (peak detection) [2]: + | Total excretion (% AD), total (urine + feces) ([3]; IV (1C)): 45.9 % AD | Percent of Dose, Total (urine, feces and liver) ([3]; Oral, 24 h after [14C]Compound 1): 65.6% of Dose | Total excretion (% AD), total (urine + feces) ([3]; PO (2C), urine data estimated): 65.6 % AD | Total excretion (urine + feces), % of the administered dose ([3]; rat, IV dose): 45.9% | radioactivity recovered in feces (% of dose) ([3]; rat, IV dose, 24 h): 39% | radioactivity recovered in urine (% of dose) ([3]; rat, IV dose, 24 h): 47% | Total excretion (urine + feces), % of the administered dose ([3]; rat, PO dose): 65.6% | Fecal Excretion (% AD) [3, 6]: 0.05 ± 0.08 % AD | Urinary + Fecal Excretion (% AD) [3, 6]: 26.0 ± 2.3 % AD | Urinary Excretion (% AD) [3, 6]: 25.9 ± 2.4 % AD | Fecal Excretion (% AD) [3, 7]: 0.13 ± 012 % AD | Urinary + Fecal Excretion (% AD) [3, 7]: 27.8 ± 4.9 % AD | Urinary Excretion (% AD) [3, 7]: 27.7 ± 4.9 % AD | Fecal Excretion (% AD) [3, 8]: 39.0 ± 4.0 % AD | Urinary + Fecal Excretion (% AD) [3, 8]: 86.0 ± 4.8 % AD | Urinary Excretion (% AD) [3, 8]: 46.9 ± 4.1 % AD | Fecal Excretion (% AD) [3, 9]: 0.001 ± 0.001 % AD | Urinary + Fecal Excretion (% AD) [3, 9]: 0.05 ± 0.06 % AD | Urinary Excretion (% AD) [3, 9]: 0.05 ± 0.06 % AD | Fecal Excretion (% AD) [3, 10]: 0.006 ± 0.005 % AD | Urinary + Fecal Excretion (% AD) [3, 10]: 0.36 ± 0.18 % AD | Urinary Excretion (% AD) [3, 10]: 0.36 ± 0.18 % AD | Fecal Excretion (% AD) [3, 11]: 91.3 ± 8.7 % AD | Urinary + Fecal Excretion (% AD) [3, 11]: 94.1 ± 8.9 % AD | Urinary Excretion (% AD) [3, 11]: 2.84 ± 0.82 % AD | Total excretion (% AD), urine ([4]; IV (1C)): 26.1 % AD | Percent of Dose, Urine 0-24 h ([4]; IV): 26.1% of Dose | Percent of Dose, Urine 0-24 h ([4]; Oral): 0.02% of Dose | Total excretion (% AD), urine ([4]; PO (2C), urine data estimated): 0.02 % AD | % AD (percent of administered dose) [4, 12]: 0.06 % AD | % HPLC (percent of HPLC peak area in the sample extract) [4, 12]: 74.8% | % AD (percent of administered dose) [4, 13]: 0.01 % AD | % HPLC (percent of HPLC peak area in the sample extract) [4, 13]: 6.57% | % AD [4, 14]: 0.01 % AD | % HPLC (percent of HPLC peak area in the sample extract) [4, 14]: 0.30% | % of total urinary excretion, estimated ([4]; estimated profile, group 2C (PO dose) urine): 0.73% | % AD, estimated ([4]; estimated profile, group 2C (PO dose) urine, 1 h): 0.01 % AD | % HPLC (percent of HPLC peak area in the sample extract) ([4]; estimated profile, group 2C (PO dose) urine, 1 h, single animal % HPLC distribution): 74.8% | % AD, estimated ([4]; estimated profile, group 2C (PO dose) urine, 2 h): 0.003 % AD | % HPLC (percent of HPLC peak area in the sample extract) ([4]; estimated profile, group 2C (PO dose) urine, 2 h, single animal % HPLC distribution): 6.57% | Total % AD, estimated ([4]; estimated profile, group 2C (PO dose) urine, total of all collections): 0.02 % AD | % AD (percent of administered dose) [4, 15]: 21.39 % AD | % HPLC (percent of HPLC peak area in the sample extract) [4, 15]: 93.5% | % AD (percent of administered dose) [4, 16]: 2.50 % AD | % HPLC (percent of HPLC peak area in the sample extract) [4, 16]: 48.9% | % AD (percent of administered dose) [4, 17]: 0.71 % AD | % HPLC (percent of HPLC peak area in the sample extract) [4, 17]: 30.5% | % AD (percent of administered dose) [4, 18]: 1.51 % AD | % HPLC (percent of HPLC peak area in the sample extract) [4, 18]: 9.09% | % of total urinary excretion ([4]; group 1C (IV dose) urine): 55.6% | Total % AD ([4]; group 1C (IV dose) urine, total of all collections): 26.1 % AD | % AD (percent of administered dose) [4, 19]: 0.01 % AD | % HPLC (percent of HPLC peak area in the sample extract) [4, 19]: 0.30% | % of the total urinary excretion ([4]; rat urine, IV dose 50 mg/kg): 55.6% | urinary component, % of the administered dose (% AD) ([4]; rat urine, IV dose 50 mg/kg, 0-24 h, 50 mg/kg): 26.1 % AD and 26 % AD | urinary component, estimated % of the administered dose (% AD) ([4]; rat urine, PO dose 100 mg/kg, 0-24 h): 0.02 % AD | % of the total radioactivity eliminated via urine within one hour ([4]; rat urine, PO dose, 1-h time point): 74.8% | % of the total urinary excretion by 6 h ([4]; rat urine, PO dose, 6 h): 6.6% | Percent of Dose, Total (urine, feces and liver) [5]: 45.9% of Dose
